Molecular target: T1, Human recombinant SIRT6 (Homo sapiens, UniProt Q8N6T7)
T1 construct: six-histidine (His6); made in house; host or cells: Escherichia coli BL21
Experiment: SIRT6 enzymatic activity assay (fluorogenic de-myristoylation of histone H3 peptide-AMC, trypsin-coupled)
Type: biochemical
Conditions: for % activity 20 uM / % activity 100 uM: Table 2, percentage of signal increase relative to control wells; for % activity 20 uM: compound 20 uM; for % activity 100 uM: compound 100 uM; for % activity (20 micromolar only): Table 3, compound 20 micromolar
Method: Human recombinant SIRT6 (sequence identifier: CAG33481.1; GI:4814651) was expressed in large scale in Escherichia coli strain BL21 as a six-histidine-tagged protein, after transformation of the expression plasmid pET28-SIRT6. The SIRT6 enzyme was purified from the bacteria culture broth in a two-step strategy. The first purification step was carried out by cation exchange chromatography on a HiTrap CM-Sepharose column (GE Healthcare) using an FPLC system. The second purification step was performed by immobilized metal ion affinity chromatography (IMAC) using a cobalt affinity column (Clontech).
The enzymatic activity assay is carried out in 96 or 384-well microplates using the purified recombinant SIRT6 and a fluorophore-labeled peptide substrate: 7-amino-4-methylcoumarin (AMC) that is quenched through conjugation to the C-terminal end of a Lysin-myristoylated histone H3 peptide. The activity assay procedure requires two steps, both performed in the same microplate. In the first step, the substrate is incubated with the purified SIRT6 protein along with the co-substrate nicotinamide adenine dinucleotide (NAD+). Upon de-myristoylation, the liberated ε-amino group of the lysine becomes a trypsin substrate. Treatment with trypsin in the second step releases the fluorophore resulting in an increase in fluorescence. Fluorescence intensity is measured using a fluorescent plate reader (excitation and emission at 370 nm and 450 nm, respectively). The fluorescence signal is directly proportional to SIRT6 enzymatic activity.
In the primary screening, compounds from a library (ChemDiv Inc.) were tested at a single concentration of 20 micromolar for their potential to modulate SIRT6 enzymatic activity. The assay was carried out in 384-well black well plates and all liquid handling was done using a robotic liquid handler. Purified recombinant SIRT6 (1 micromolar) was pre-incubated with each compound (or DMSO in control wells) for 15 minutes at room temperature. The first stage of the assay was initiated by adding a ‘substrate solution’ containing the myristoylated histone H3 peptide and NAD+(for final concentrations of 25 micromolar and 20 micromolar, respectively). After one hour incubation at 37° C., a Trypsin solution (6 mg/mL) was added for 30 minutes at room temperature. Fluorescence intensity was measured using a fluorescent plate reader (Tecan) with excitation at 370 nm and emission at 450 nm. The effect of each tested compound was evaluated by the change in the fluorescence intensity compared to control wells. […] To validate the primary screening results, each of the primary “hits” was re-tested, first at concentration of 20 micromolar in duplicates and later at a serial dilution ranging from 100 to 0.2 micromolar in triplicates.

T1 sequence (Q8N6T7 whole entry): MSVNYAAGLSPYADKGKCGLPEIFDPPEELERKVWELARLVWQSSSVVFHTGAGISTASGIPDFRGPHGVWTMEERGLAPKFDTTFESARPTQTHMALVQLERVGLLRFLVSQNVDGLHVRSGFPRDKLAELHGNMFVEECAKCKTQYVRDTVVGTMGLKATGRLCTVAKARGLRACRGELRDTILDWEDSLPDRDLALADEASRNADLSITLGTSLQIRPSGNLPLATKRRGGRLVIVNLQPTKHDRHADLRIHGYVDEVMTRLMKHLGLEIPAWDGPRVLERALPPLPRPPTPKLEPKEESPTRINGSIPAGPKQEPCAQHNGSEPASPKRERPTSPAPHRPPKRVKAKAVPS

SMILES | % activity 20 uM | % activity 100 uM | % activity (20 micromolar only)
CCCC1(CO)CCCN1C(=O)c1ccc2cc[nH]c2c1 (stereo not shown) [compound 56] | 30% | 53% | –
N#Cc1cccc(-c2cn3c(n2)N(C(=O)c2ccncc2)CCC3)c1 [compound 57] | 37% | 45% | –
Cc1noc(-c2cccc(OC3CN(C(=O)c4cccc5[nH]ccc45)C3)c2)n1 [compound 58] | 38% | 47% | –
C=C(C)C1Cc2cc(C(F)(F)F)ccc2N2CCCCC12 (stereo not shown) [compound 59] | 89% | 175% | –
Cc1nc(-c2cccc(C(F)(F)F)c2)c(N)c(N(C)C2CCN(C)CC2)n1 [compound 60] | 52% | 255% | –
Cc1nc(-c2cccc(F)c2)c(N)c(N(C)C2CCN(C)CC2)n1 [compound 61] | 50% | 210% | –
C=C1Cc2cc(C)cc(CC(=O)[C@@H](NS(=C)(=C)c3ccc(C)cc3)[C@H](C)CC)c2C2=C1CCC2 [compound 62] | 28% | 113% | –
O=C(NCc1ccc2c(c1)CCC2)c1ccc(NC(=O)C2CC2)cc1N1CCCCCC1 [compound 63] | – | – | 38%
CCn1c2ccccc2c2nnc(N3CCN(c4cccc(C(F)(F)F)c4)CC3)nc21 [compound 64] | – | – | 85%

— patent US10857170B1, “Molecules, compositions and methods for modulation of SIRT6” (SirTLab Corporation, priority 2015, dated 2020)
